Source: patent US20140243281A1, “BILE ACID RECYCLING INHIBITORS FOR TREATMENT OF PEDIATRIC CHOLESTATIC LIVER DISEASES” (Lumena Pharmaceuticals, Inc., priority 2011, published 2014)
Like-named read-outs stand apart in the source and are kept apart here. Marks after values point to notes of the source that are not given here.

Legend:
Male ZDF rats = assay: Plasma bile acid levels of ZDF rats after ascending doses of SC-435 and LUM002; format: in vivo, rat; settings: ZDF rats n=4; all doses (SC-435 1, 10, 30 mg/kg; LUM002 0.3, 1, 3, 10, 30 mg/kg) oral gavage twice a day, 2 weeks
Description: FIG. 2. Plasma bile acid levels of ZDF rats after administration of ascending doses of SC-435 and LUM002. Male ZDF rats (n=4) were administered vehicle, SC-435 (1, 10 or 30 mg/kg) or LUM002 (0.3, 1, 3, 10 or 30 mg/kg) by oral gavage twice a day for 2 weeks. Plasma bile acid levels were determined at the end of the second week. Data are expressed as mean values±SEM.
Male ZDF rats (n=4) were administered vehicle, SC-435 (1, 10 or 30 mg/kg) or LUM002 (0.3, 1, 3, 10 or 30 mg/kg) by oral gavage twice a day for 2 weeks. Plasma bile acid levels were determined at the end of the second week. […] Data are expressed as mean values±SEM.

[1] = Pharmacokinetics (systemic exposure) of LUM001 in pediatric subjects; format: in vivo, human; settings: for concentration at 8 day: human, serum, read-out: Average serum drug exposure
Description: (§1) LUM001 has been administered to forty patients under the age of 18 years old. […] The drug was administered once-a-day (QD) in the morning for fourteen days. […] These doses are similar to those using to treat children with cholestatic diseases.

Male beagle dogs [2] = assay: Duration of action on dog serum bile acids, Method 1: two meals for extended SBA elevation; format: in vivo; settings: for Serum Bile Acid, Mean: full meal at 0 hr, dosed at 1 hr, half meal at 4 hr
Description: (§2) Test compound: LUM001-Form I
(§3) LUM001 was dissolved in water at concentrations that required the administration of 0.2 ml/kg of solution. Solutions were placed into gelatin capsules, Torpac Inc., size 13 Batch 594, East Hanover N.J., and administered orally.
(§4) Male beagle dogs were obtained from Covance Research Products, Cumberland Va. or Marshall Farms USA, Inc., North Rose N.Y. A total of 20 dogs, 1 to 5 years old, 6.8 to 15.6 kg body weight, were used in these experiments. The dogs were conditioned to a 12 hour light/dark cycle and maintained on a feeding restriction of 1 hour per day access to food (Richman Standard Certified Canine Diet #5007, PMI Nutrition, Inc., St Louis Mo.) from 7 to 8 AM. They were trained to eat a special meal promptly within 20 minutes when presented (1 can. 397 g, Evanger's 100% Beef for Dogs, Evanger's Dog and Cat Food Co., Inc., Wheeling Ill., mixed with 50 g of sharp cheddar cheese.).
(§5) SBA was measured by an enzymatic assay. SBA values are expressed as μg of total bile acids/ml of serum.
To estimate the details of this plateau, 6 dogs were given a test meal and blood samples for SBA measurement were collected at −30, 0, 30, 60, 65, 70, 80, 90, 120, 180, 240, 360, 480, 720, 1410 and 1440 minutes from the time of feeding. Any remaining food was removed 20 min after it was first presented to the dogs. To establish a method for extending the elevated plateau of SBA, 6 dogs were given the meal at 0 hr and an additional ½ size meal again 4 hr after their first meal. Blood samples were taken at 0, 1, 2, 3, 4, 4.5, 6, 7 and 8 hr. The curves for SBA level vs time obtained in these experiments were used as references for determining blood sampling times in experiments with LUM001. Wherever possible, experimental design permitting, in experiments with test compound, each dog served as its own simultaneous control, and the mean 1 hr SBA value served as the reference to which all other mean values were compared.
In dogs a single experimental meal produces a postprandial rise in SBA that is elevated to a peak at 1 hour after feeding and constant for an additional 3 hours. Previous experiments (2) indicate that LUM001 remains active for more than 4.5 hours. To measure the duration of action of an ASBT inhibitor using postprandial SBA levels requires that in the control situation the SBA levels remain elevated and constant for the entire period of compound action, or that the compound be administered long before the postprandial rise occurs, and remain active in the empty digestive system for long periods before feeding. Accordingly, two alternative methods were used to provide a window of constant SBA elevation that could be used to measure the duration of action of ASBT inhibitors.
[…] At 4 hours after the meal was offered, a second meal of ½ the size of the first meal was offered. It too was consumed as promptly and thoroughly as the first meal, and provided an extended, constant SBA plateau. Blood samples for SBA measurement were taken at 0, 1, 1.5, 2, 4, 4.5, 5, 5.5, 6, 6.5, 7, 7.5 and 8 hours from the time of offering the first meal. Mean SBA levels were compared to the mean SBA level at 1 hour, each dog serving as its own control.
All animals were fed a full meal at 0 hour, dosed orally with the compound at 1 hour and then fed an additional one-half meal at 4 hours. *=p<0.05 compared to the mean value in the same curve at 1 hour by two-tailed paired two-sample t-test.

Male beagle dogs [3] = assay: Time to onset of activity on postprandial serum total bile acids in beagle dogs; format: in vivo; settings: dog
Description: as §2, §3, §4, §5
To estimate the details of this plateau, 6 dogs were given a test meal and blood samples for SBA measurement were collected at −30, 0, 30, 60, 65, 70, 80, 90, 120, 180, 240, 360, 480, 720, 1410 and 1440 minutes from the time of feeding. Any remaining food was removed 20 min after it was first presented to the dogs. […]

[4] = test system: children and adolescents under the age of eighteen; assay: Fasting serum bile acid and morning post-prandial peak in pediatric subjects; format: in vivo, human; settings: QD in the morning
Description: as §1
The efficacy of LUM001 was determined by measuring total serum bile acids after eight days of dosing in children and adolescents under the age of eighteen. Thirty minutes before the next drug administration, at approximately 8 am in the morning, serum bile acid levels were measured. The child had refrained from food for 12 hours prior to this sample thus providing a fasted level of serum bile acid. After breakfast, serum bile acids were measured for up to the next 4 hours (8 am to noon) and the peak serum bile acid concentration noted.

healthy, adult subjects = assay: Phase 1 ascending multiple oral doses in healthy subjects: serum and fecal bile acid analysis; format: in vivo, human; settings: 28 days
Description: This Phase 1 study was a randomized, double-blind, placebo-controlled study of ascending multiple oral doses of LUM001 in healthy, adult subjects. This study was conducted at a single center. There were 13 LUM001 dosing panels: 10, 20, 60, 100, and 20 mg every morning (qAM) (2) (i.e., the regimen was tested a second time in the study), 5 mg every evening (qPM), 0.5, 1, 2.5, 5, 2.5 (2), 5 (2), and 0.5 to 5 mg qAM dose titration. Most of the dosing panels included subjects treated with matching placebo. Shown in the graphs are data from the 0.5 (n=16), 1.0 (n=8), 2.5 (n=8), 5.0 (n=8) and 10 (n=8) mg dosing groups. […]
SBA were analyzed as part of the routine clinical analysis of the serum samples collected at each time point.
Fecal samples were collected for all panels except the dose-titration panel, 2.5 (2) and 5 mg (2), on Days 9 through 14 and 23 through 28 (data shown in FIG. 4). Twenty-four hour FBA excretions were quantified by Pharmacia for Days 9 through 14 and 23 through 28. […] The weight of each 24-hour fecal collection was recorded on the CRFs. […]
An aliquot for each 24-hour fecal sample collected on Days 23 through 28 was combined, homogenized, and analyzed for bile acid species concentrations by ANAPHARM. The fecal bile acid species evaluated include chenodeoxycholic acid, cholic acid, deoxycholic acid, and lithocholic acid.

[5] = test system: treated subjects aged 10-17; assay: Pediatric multiple-dose study, tolerability; format: in vivo, human; settings: 2 weeks daily up to 5 mg q.d.; 39 treated subjects aged 10-17
Text: (39 treated subjects aged 10-17).

[6] = test system: Male Zucker diabetic fatty rats (ZDF/GmiCrl-fa/fa); assay: Fecal bile acid excretion and plasma bile acid concentrations in ZDF rats given 264W94; format: in vivo, rat; settings: 2 weeks
Description: Male Zucker diabetic fatty rats (ZDF/GmiCrl-fa/fa) were purchased from Charles River (Raleigh, N.C.) and housed under controlled conditions (12:12 light-dark cycle, 24° C. and 50% relative humidity) with free access to rodent food (Purina 5008, Harlan Teklad, Indianapolis, Ind.). All rats arrived at seven weeks of age (±3 days). After a one-week acclimation period, rats were anesthetized with isoflurane (Abbott Laboratories, IL) and tail-vein blood samples were collected at 9 am without fasting. Blood glucose levels were measured using a glucometer (Bayer, Leverkusen, Germany). In order to ensure balanced treatment groups, ZDF rats were assigned to six treatment groups based upon baseline glucose: vehicle (0.5% HPMC, 0.1% Tween80) and five doses of 264W94 (0.001, 0.01, 0.1, 1, 10 mg/kg). All treatments were given via oral gavage twice a day and animals were followed for two weeks with blood samples collected from tail vein at the end of each week at 9 am without fasting. Fecal samples were collected for 24 hours during the second week of treatment.
Non-esterified fatty acids (NEFA), bile acids, and bile acids in fecal extraction were measured using the Olympus AU640 clinical chemistry analyzer (Beckman Coulter, Irving, Tex.).

## CCCC[C@]1(CC)CS(=O)(=O)c2ccc(N(C)C)cc2[C@@H](c2cccc(NC(=O)N[C@@H]3O[C@H](COS(=O)(=O)[O-])[C@@H](O)[C@H](OCc4ccccc4)[C@H]3O)c2)[C@H]1O.[K+] [LUM002]
Male ZDF rats
  Plasma bile acid levels: decreased

## CCCCC1(CCCC)CS(=O)(=O)c2ccc(N(C)C)cc2[C@@H](c2ccc(OCCCC[N+]34CCN(CC3)CC4)cc2)[C@H]1O.CS(=O)(=O)[O-] [SC-435, 1-[4-[4-[(4R,5R)-3,3-dibutyl-7-(dimethylamino)-2,3,4,5-tetrahydro-4-hydroxy-1,1-dioxido-1-benzothiepin-5-yl]phenoxy]butyl]-4-aza-1-azoniabicyclo[2.2.2]octane methanesulfonate salt, reference compound]
Male ZDF rats
  Plasma bile acid levels: decreased

## CCCCC1(CCCC)CS(=O)(=O)c2ccc(N(C)C)cc2[C@@H](c2ccc(OCc3ccc(C[N+]45CCN(CC4)CC5)cc3)cc2)[C@H]1O [LUM001]
[1]; children, once-a-day in the morning for fourteen days
  Systemic absorption (levels of systemic exposure measured on day eight): minimally absorbed
[1]; Subject 0308, 1.0 mg, 28.9 μg/kg QD
  concentration at 8 day: 0 ng/mL
[1]; Subject 0410, 2.5 mg, 42.0 μg/kg QD
  concentration at 8 day: 0 ng/mL
[1]; Subject 0510, 5.0 mg, 168.4 μg/kg QD
  concentration at 8 day: 0 ng/mL
Male beagle dogs [2]; 0 hr
  Serum Bile Acid, Mean: 1.4 µg/mL
Male beagle dogs [2]; 1 hr
  Serum Bile Acid, Mean: 9.2 µg/mL
Male beagle dogs [2]; 1.5 hr
  Serum Bile Acid, Mean: 9.6 µg/mL
Male beagle dogs [2]; 2 hr
  Serum Bile Acid, Mean: 6.7 µg/mL
Male beagle dogs [2]; 4 hr
  Serum Bile Acid, Mean: 5.1* μg/ml
Male beagle dogs [2]; 4.5 hr
  Serum Bile Acid, Mean: 6.4 µg/mL
Male beagle dogs [2]; 5 hr
  Serum Bile Acid, Mean: 7.0 µg/mL
Male beagle dogs [2]; 6 hr
  Serum Bile Acid, Mean: 7.0 µg/mL
Male beagle dogs [2]; 7 hr
  Serum Bile Acid, Mean: 7.4 µg/mL
Male beagle dogs [2]; 8 hr
  Serum Bile Acid, Mean: 6.5 µg/mL
Male beagle dogs [2]; previous experiments
  Time LUM001 remains active: more than 4.5 hours
Male beagle dogs [3]; 0.05 mg/kg oral
  Time after dosing to significantly lowered SBA levels: 1 to 2 h
Male beagle dogs [3]; 1 mg/kg p.o., 0 min from feeding, fed at 0 min, dosed at 60 min
  Serum Bile Acid, Mean: 2.8 µg/mL
[4]
  Decrease of fasting serum bile acid level versus placebo patients: 24%
  Decrease of post-prandial peak serum bile acid level versus placebo patients: 23%
healthy, adult subjects
  Fecal bile acids: significant increase
  Serum bile acids: significant reduction
[5]
  Tolerability: well-tolerated

## CCCC[C@]1(CC)CS(=O)(=O)c2cc(OC)c(OC)cc2[C@@H](c2ccccc2)N1 [Compound 264W94]
[6]; 0.001-10 mg/kg oral gavage twice a day, 24 h feces in second week
  Fecal bile acid concentrations elevated compared to vehicle treated rats: up to 6.5 fold
[6]; oral gavage twice a day
  ED50 for elevation of fecal bile acid concentrations: 0.17 mg/kg
  Fecal NEFA: slightly increased
  Plasma bile acid concentrations: decreased dose-dependently
